Experimental data published in patent publication US9497963B2, “Methods and compositions for control of gypsy moth, Lymantria dispar” (Simon Fraser University, priority 2008, dated 2016).
Like-named read-outs stand apart in the source and are kept apart here.

What was measured:
[1] = tested on: male gypsy moth antenna response to pheromone (+)-1; assay: EAG short-term (STI) and long-term (LTI) inhibition of pheromone signaling (Example 5); design: species or system Lymantria dispar; settings: for inhibition at 100 µg, 0.1 mg / inhibition at 0.001 mg / inhibition at 0.01 mg / inhibition at 0.1 mg: Lymantria dispar; for inhibition at 0.001 mg / inhibition at 0.01 mg / inhibition at 0.1 mg / Activity (%): short-term inhibition (STI): negative = enhancement
Outline: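 Excised male gypsy moth antenna in saline pH 6.8 under purified air (300 mL/min); 0.3 s puffs: air, (+)-1 100 ng, (+)-1 plus compound 1, 10, 100 μg per cartridge, then (+)-1 alone. STI: mixed-puff air-corrected depolarization loss versus first pheromone puff; LTI: final pheromone-puff loss.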

[2] = tested on: male gypsy moth antenna response to mixed pheromone/modulator plume; assay: EAG peak broadening (PB) (Example 11); design: species or system Lymantria dispar; settings: mixed plume, 100 μg compound and 100 ng pheromone (puff v vs puff ii)
Description: A mixed pheromone/modulator plume could elicit a prolonged response (FIG. 1A, puff v; FIG. 2), and this was termed peak broadening (PB). PB was calculated from the EAG traces as follows: PB=100×(Δtv−Δtii)/Δtii
Where Δt was the width of the EAG peak (in s) from the start of the depolarization to the return to background potential.

[3] = tested on: male gypsy moth antenna; assay: Coupled gas chromatographic-electroantennographic detection (GC-EAD); design: species or system Lymantria dispar; settings: EAD peak size and shape (sharp/broad)
Outline: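 GC column effluent split between flame ionization detector and an excised male moth antenna held between saline-filled glass capillary electrodes, tip removed, in a warm air stream. Antennal potentials assigned to compounds by matching retention times with FID peaks.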

[4] = tested on: L. dispar PBP 2; assay: Pheromone-binding protein (PBP) ligand binding assay, PBP2; design: species or system Lymantria dispar
Description: (§1) A. The protein and ligand are incubated in buffer overnight. B. For half of the incubation mixture, the free ligand (L) is separated from the protein-bound ligand (P.L) by size-exclusion chromatography on P2 Gel (BioRad, exclusion limit 2000 Da). The protein elutes from the small column bed, with its ligand bound (see Examples and […] et al. 2000; Staddon and Everton 1980), while the free ligand is retained on the column ([…] et al. 2000). C. […] The extract from the filtrate (B) contains the protein-bound ligand and the extract from the incubation mixture (A) contains all the ligand (bound and free) present in the aqueous phase. The extracts are analyzed by GC-MS, to obtain values for total ligand in solution (L+P.L) and for protein-bound ligand (P.L). These can then be used to calculate % bound (Table 3). These assays were performed as described in FIG. 3 and as follows: L. dispar PBP 1 or PBP 2 was incubated with the test compound or mini-library. The PBP and the ligand(s) (L) were left to equilibrate (eq 2) overnight. The non-bound ligand was then separated from the protein-bound material (PBP.L) by size-exclusion chromatography. By determining the total ligand in solution at equilibrium (eq. 3) and the protein-bound ligand, it is possible to estimate the percentage of ligand bound to the protein at equilibrium (eq. 4). […] This binding assay has been validated extensively in previous studies ([…] et al. 2000). The components of each mini-library separated cleanly by GC, so it was possible to monitor binding of individual components. PBP+L⇄PBP·L (eq. 2) [L]tot=[L]+[PBP·L] (eq. 3) % bound=100×[PBP·L]/[L]tot (eq. 4) Results: The members of each mini-library separated cleanly by GC, therefore it was possible to monitor binding of individual members to PBP1 or PBP2, the two known PBPs in the gypsy moth, by extraction from the aqueous incubation mixture, followed by GC analysis of the extract (FIG. 3).

[5] = tested on: L. dispar PBP 1; assay: Pheromone-binding protein (PBP) ligand binding assay, PBP1; design: species or system Lymantria dispar
Description: as §1

[6] = tested on: male gypsy moth antenna response to odorants other than (+)-1; assay: Long-term inhibition of responses to other pheromone and host plant odorants, EAG (Example 8, first objective); design: species or system Lymantria dispar
Description: To determine whether the long-term inhibitory effects of 3c{2,3} and DEET are specific to (+)-1 or also apply to other odorants, compound 3c{2,3} and DEET were tested further with other odorants: (−)-1, racemic 1, dispar alkene, methyl eugenol and 1-hexanol.
These included (−)-1, racemic 1, dispar alkene (the alkene corresponding to the carbon framework of 1), methyl eugenol (a characteristic oak wood odorant) and 1-hexanol (a green leaf volatile, shown previously to be detected by gypsy moth antennae). For the pure odorant puffs, (−)-1 and racemic 1 were administered at 100 ng/cartridge, the alkene, methyl eugenol was administered at 1 μg/cartridge and 1-hexanol was administered at 100 μg/cartridge. The antagonists were both administered at 100 μg/cartridge, mixed with the appropriate dose of the odorant. The puff order was: i) air, ii) pure odorant, iii) odorant+antagonist, iv) pure odorant. All puffs were corrected for the air response as in Eq. 1. STI values were obtained from the depolarization […]. LTI values were obtained by comparing the depolarization of puff iv relative to that of puff ii.

[7] = tested on: male gypsy moth antennae response to pheromone (+)-1 with plant odors; assay: Effect on mixed pheromone/plant odorant stimulus, EAG (Example 8, second objective); design: species or system Lymantria dispar; settings: (+)-1 100 ng + 1-hexanol 100 μg, no antagonist
Description: A second objective for this experiment was to determine whether the oak volatiles, methyl eugenol and 1-hexanol, can enhance the antennal response to (+)-1 and whether the mixed pheromone/plant odorant stimulus can be inhibited by compound 3c{2,3} or DEET. The puff order was: i) air, ii) pure (+)-1 (100 ng), iii) (+)-1 (100 ng) and plant odorant (1 μg for methyl eugenol and 100 μg for 1-hexanol), iv) (+)-1 and plant odorant as in iii+antagonist (100 μg), v) same as in iii. Depolarizations were corrected for the air response as in Eq. 1 and the short-term effects were calculated for puff iii relative to puff ii, and for puff iv relative to puff ii. Long-term effects were calculated for puff v relative to puff iii (for LTI of the mixed pheromone/plant odorant plume) and for puff v relative to puff ii (to determine whether long-term effects of the plant odorant and of the antagonist cancel).

[8] = tested on: third instar gypsy moth larvae; assay: Feeding deterrence, oak leaf disc choice test (Example 13); assay type: in vivo, Lymantria dispar
Description: Gypsy moth larvae were tested at the Canadian Forest Service, for feeding deterrence. A selected set of compounds, based on the results with the electroantennogram testing and also based on feeding deterrence assay results with the cabbage looper, T. ni. The experiment was done with third instar larvae and oak leaf discs. Larvae were left to choose between a treated and a control disc for 17.5 hours. Measurements of leaf areas were used to calculate the amount of leaf consumed from control (C) and treated (T) leaves. Feeding deterrence was calculated using the following formula: ((C−T)/(C+T))*100, and expressed in percent, where C=area of control leaf consumed and T=area of treated leaf consumed.

[9] = tested on: gypsy moths; assay: Field test of trap catches, Northern Japan 2009 (Example 12); assay type: in vivo, Lymantria dispar; settings: (+)-dis 40 μg/lure & compound 40 mg/lure, vs (+)-dis alone
Description: Ten traps were used per treatment. The solvent used to deliver the compounds onto the lures was doubly distilled hexane. The hexane was evaporated prior to packing and shipping the lures. The field test was conducted in 10 replicates in Northern Japan. The test was conducted Aug. 16-18, 2009, in an area where gypsy moths are known to live. […] Traps were arranged randomized, placed on platforms. The experiment was conducted blind. The lures contained 40 μg disparlure/lure, a low dose for a field trial (typically 100 μg-1 mg are used). For each treatment, 10 traps were deployed.

[10] = mixed plume (+)-1 100 ng + compound 1 μg, mean ± S.E., read-out: Activity (%): short-term inhibition (STI)
[11] = mixed plume (+)-1 100 ng + compound 10 μg, mean ± S.E., read-out: Activity (%): short-term inhibition (STI)
[12] = mixed plume (+)-1 100 ng + compound 100 μg (puff v), mean ± S.E., read-out: Activity (%): short-term inhibition (STI)
[13] = pure (+)-1 100 ng plume following mixed plume with 100 μg compound, mean ± S.E., read-out: Activity (%): long-term inhibition (LTI)
[14] = member tested within library 3c{2, 1-5}
[15] = member tested within library 3c{5, 1-5}

| Structure (SMILES) | activity (% peak broadening) [2] | GC-EAD activity [3] | inhibition at 0.001 mg [1, 10] | inhibition at 0.01 mg [1, 11] | inhibition at 0.1 mg [1, 12] | inhibition at 100 µg, 0.1 mg [1, 13] | other results |
| --- | --- | --- | --- | --- | --- | --- | --- |
| COc1ccccc1OC [3a{1,1}, 1,2-Dimethoxy benzene] | 99 ± 25% | ++ sharp | – | – | – | – | inhibition at 100 µg, 0.1 mg ([1]; read-out: Activity (%): long-term inhibition (LTI)): 18 ± 13% |
| CCOc1ccccc1OCC [3a{2,2}, 1,2-Diethoxy benzene] | 106 ± 32% | + sharp | -10 ± 29% | -23 ± 42% | -22 ± 69% | 15 ± 11% | – |
| CCCOc1ccccc1OCCC [3a{3,3}, 1,2-Dipropoxy benzene] | 80 ± 31% | ++ sharp | 37 ± 14% | 4 ± 21% | -11 ± 36% | 36 ± 9% | – |
| CCCCOc1ccccc1OCCCC [3a{4,4}, 1,2-Dibutoxy benzene] | 86 ± 32% | + broad | -48 ± 28% | 14 ± 31% | 27 ± 29% | 49 ± 12% | – |
| C=CCOc1cccc(OCC)c1 [3b{2,6}, 1-allyloxy-3-ethoxybenzene] | 77 ± 33% | None | -115 ± 43% | -17 ± 54% | -50 ± 74% | 25 ± 8% | – |
| CCOc1ccc(OCCC(C)C)cc1 [3c{2,5}, 1-ethoxy-4-(3-methyl-butyloxy) benzene] | – | None | – | – | – | – | PBP2 (% bound) [4, 14]: 14 ± 0.2%; PBP2 (% bound) [4, 15]: 3 ± 0.03%; PBP1 (% bound) [5, 14]: 4 ± 0.2%; PBP1 (% bound) [5, 15]: 2 ± 0.1% |
| CCCOc1ccc(OCCC(C)C)cc1 [3c{3,5}, 1-(3-methyl-butyloxy)-4-propoxy benzene] | – | None | 10 ± 11% | -120 ± 20% | -145 ± 35% | 4 ± 7% | PBP2 (% bound) [4, 15]: 2 ± 0.02%; PBP1 (% bound) ([5]; member tested within library 3c{3, 1-5}): 1 ± 0.2%; PBP1 (% bound) [5, 15]: 3 ± 0.1% |
| CCCCCCO [Compound 1-hexanol, 1-hexanol, reference compound] | – | – | – | – | – | – | EAG response to the pure odorant (in words) [6]: weak odorant; short-term effect with the plant synergist [7]: −19 ± 24 (10) |
| C=CCc1ccc(OC)c(OC)c1 [Me eugenol] | – | None | – | – | – | – | EAG response to the pure odorant (in words) [6]: same responses than clean air; inhibition at 100 µg, 0.1 mg ([1]; read-out: Activity (%): long-term inhibition (LTI), pure (+)-1 100 ng plume following mixed plume with 100 μg compound, mean ± S.E.): 8 ± 11%; inhibition at 0.001 mg ([1]; read-out: Activity (%): short-term inhibition (STI), mixed plume (+)-1 100 ng + compound 1 μg, mean ± S.E.): -1 ± 13%; inhibition at 0.01 mg ([1]; read-out: Activity (%): short-term inhibition (STI), mixed plume (+)-1 100 ng + compound 10 μg, mean ± S.E.): 76 ± 7%; inhibition at 0.1 mg ([1]; read-out: Activity (%): short-term inhibition (STI), mixed plume (+)-1 100 ng + compound 100 μg (puff v), mean ± S.E.): -152 ± 30%; Feeding Deterrence (%) ([8]; foliar, 17.5 h): 81.15%; trap catches in the field [9]: enhanced the trap catches significantly |
| C=CCc1ccc(OCCC)c(OC)c1 [Pr eugenol] | – | None | – | – | – | – | Activity (%): short-term inhibition (STI) ([1]; mixed plume (+)-1 100 ng + compound 1 μg, mean ± S.E.): 18 ± 37 (6) %; Activity (%): short-term inhibition (STI) ([1]; mixed plume (+)-1 100 ng + compound 10 μg, mean ± S.E.): 39 ± 23 (6) %; Activity (%): short-term inhibition (STI) ([1]; mixed plume (+)-1 100 ng + compound 100 μg (puff v), mean ± S.E.): −79 ± 25 (6) %; Activity (%): long-term inhibition (LTI) ([1]; pure (+)-1 100 ng plume following mixed plume with 100 μg compound, mean ± S.E.): 7 ± 6 (6) %; Feeding Deterrence (%) ([8]; third instar larvae, oak leaf discs, choice between treated and control disc for 17.5 hours, ((C−T)/(C+T))*100): 52.67% |
